Target: T1, PPAT (amidophosphoribosyltransferase) (Homo sapiens, UniProt Q06203)
T1 construct: with NUDT5
Test: native PAGE of K562 lysate with PRPP dose curve (loss of NUDT5-PPAT oligomer); co-immunoprecipitation with […] PRPP
Format: biochemical

T1 sequence (Q06203 12-517): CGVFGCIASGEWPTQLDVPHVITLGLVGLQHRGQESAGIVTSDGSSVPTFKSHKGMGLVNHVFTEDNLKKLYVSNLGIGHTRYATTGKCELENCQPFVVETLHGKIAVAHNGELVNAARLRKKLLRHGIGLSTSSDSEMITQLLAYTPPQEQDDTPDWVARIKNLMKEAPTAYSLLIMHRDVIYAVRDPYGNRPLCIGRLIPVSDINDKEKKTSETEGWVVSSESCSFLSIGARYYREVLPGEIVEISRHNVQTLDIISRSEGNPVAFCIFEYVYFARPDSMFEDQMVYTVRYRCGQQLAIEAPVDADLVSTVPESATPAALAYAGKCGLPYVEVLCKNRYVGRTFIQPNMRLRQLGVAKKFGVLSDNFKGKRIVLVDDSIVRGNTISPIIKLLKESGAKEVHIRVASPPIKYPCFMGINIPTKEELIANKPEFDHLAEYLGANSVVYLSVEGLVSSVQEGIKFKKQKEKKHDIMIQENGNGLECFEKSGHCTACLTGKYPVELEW
T1 sequence (O95848 whole entry partner): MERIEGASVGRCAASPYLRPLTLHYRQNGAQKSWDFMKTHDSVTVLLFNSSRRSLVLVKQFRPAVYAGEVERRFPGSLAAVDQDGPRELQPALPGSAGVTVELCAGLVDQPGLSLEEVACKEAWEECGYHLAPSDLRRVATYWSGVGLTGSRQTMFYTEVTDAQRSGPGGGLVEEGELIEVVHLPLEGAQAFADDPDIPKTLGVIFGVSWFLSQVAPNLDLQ

O=P(O)(O)OC[C@H]1OC(OP(=O)(O)OP(=O)(O)O)[C@H](O)[C@@H]1O (stereo partly shown) [PRPP, phosphoribosyl pyrophosphate] showed an IC50 of 100 µM.

From PMC12638251, “Uridine-sensitized screening identifies demethoxy-coenzyme Q and NUDT5 as regulators of nucleotide synthesis” (Nature Metabolism, 2025)
